Experimental data from patent US6777578B2, “Hydroxyphenstatin and the prodrugs thereof” (Arizona Board of Regents, priority 2000, dated 2004).
Values after ≈ are worked out from the molar mass of the structure shown. Where two headings read alike, the source gives them in different places. Each block holds one molecule with its values, some of them ahead of it.

Legend:
BXPC-3 = assay: Human cancer cell growth inhibition, pancreas BXPC-3; assay type: cell-based; details: Pancreas-a
Protocol: (§1) The following measures are used to express drug activity giving the drug dose, which reduces cell growth to a specified percentage of growth:
(§2) ED50 (P388) and GI50 (HTCL) are the drug doses needed to reduce the percent growth to 50%. There is no mathematical difference between ED50 and GI50, which are both calculated using the same formula. The only difference is historical usage.
(§3) Each drug is tested at five (5) doses: 100-10-1-0.1-0.01 μg/ml. Percent Growths are calculated for each dose. The two (or three) doses with growth values above, below, (or near to) 50% growth are used to calculate the ED50/GI50 using a linear regression formula. The log of the dose is used during the regression computation. If no dose yields a growth value under 50%, the results are expressed as: ED50>(highest dose). If no dose yields a growth value higher than 50%, then ED50<(lowest dose). Similar calculations are performed for the TGI at 0% growth, and at −50% growth for the LC50.

KM20L2 = assay: Human cancer cell growth inhibition, colon KM20L2; assay type: cell-based
Protocol: as §1, §2, §3

SF-295 = assay: Human cancer cell growth inhibition, CNS SF-295; assay type: cell-based
Protocol: as §1, §2, §3

RPMI-7951 = assay: Human cancer cell growth inhibition, melanoma RPMI-7951; assay type: cell-based
Protocol: as §1, §2, §3

NCI 60-cell screen = assay: NCI 60-cell screen; assay type: cell-based; details: read-out: mean-panel GI50
[1] = system: two fungal and eight bacterial strains; assay: Antibiotic screening against the whole panel; assay type: cell-based; details: for inhibition of growth of the two fungal and eight bacterial strains tested: at 100 μg/disk
Excerpt: (§4) The new substances were screened against the bacteria Stenotrophomonas maltophilia, Micrococcus luteus, Staphylococcus aureus, Escherichia coli, Enterobacter cloacae, Enterococcus faecalis, Streptococcus pneumoniae, Neisseria gonorrhoeae, and the fungi Candida albicans and Cryptococcus neoformans, according to established disk susceptibility testing protocols.

P388 = assay: Cancer cell growth inhibition, murine P388 lymphocytic leukemia; assay type: cell-based
Protocol: as §1, §2, §3

tubulin [2] = assay: Tubulin polymerization assay; assay type: biochemical; details: read-out: Inhibition of Tubulin Polymerization (μM IC50 ± SD)
Protocol: (§5) The tubulin polymerization and colchicine binding assays were performed as described previously (See: […]), except that Beckman DU7400/7500 spectrophotometers equipped with “high performance” temperature controllers were used in the former assay. Unlike the manual control possible with the previously used Gilford spectrophotometers, the polymerization assays required use of programs provided by MDB analytical Associates, South Plainfield, N.J., since the Beckman instruments are microprocessor controlled. The Beckman instruments were unable to maintain 0° C., and the lower temperature in the assays fluctuated between 2 and 4° C. Temperature changes were, however, more rapid than in the Gilford instruments with the jump from the lower temperature to 30° C. taking about 20 sec. and the reverse jump about 100 sec.

DU-145 = assay: Human cancer cell growth inhibition, prostate DU-145; assay type: cell-based
Protocol: as §1, §2, §3

tubulin [3] = assay: Colchicine binding assay; details: [3H]colchicine binding to tubulin
Protocol: as §5

NCI-H460 = assay: Human cancer cell growth inhibition, lung-NSC NCI-H460; assay type: cell-based
Protocol: as §1, §2, §3

[4] = Solubility in distilled water; assay type: physicochemical; details: distilled water at 25° C.
Neisseria gonorrhoeae = assay: Disk susceptibility testing, Neisseria gonorrhoeae; assay type: cell-based
Excerpt: as §4

Cryptococcus neoformans = assay: Disk susceptibility testing, Cryptococcus neoformans; assay type: cell-based
Excerpt: as §4

Candida albicans = assay: Disk susceptibility testing, Candida albicans; assay type: cell-based
Excerpt: as §4

Escherichia coli = assay: Disk susceptibility testing, Escherichia coli; assay type: cell-based
Excerpt: as §4

[5] = system: Stenotrophomonas maltophilia; assay: Disk susceptibility testing, Stenotrophomonas maltophilia; assay type: cell-based
Excerpt: as §4

Micrococcus luteus = assay: Disk susceptibility testing, Micrococcus luteus; assay type: cell-based
Excerpt: as §4

Staphylococcus aureus = assay: Disk susceptibility testing, Staphylococcus aureus; assay type: cell-based
Excerpt: as §4

SMILES: COc1ccc(C(=O)c2cc(OC)c(OC)c(OC)c2)c(O)c1O [Compound 6a]
GI50 (BXPC-3; Homo sapiens, read-out: GI50): 3.3 µg/mL (≈ 9.87 µM)
GI50 (KM20L2; Homo sapiens, KM-20L2, read-out: GI50): 1.2 µg/mL (≈ 3.59 µM)
GI50 (SF-295; Homo sapiens, read-out: GI50): 0.04 µg/mL (≈ 0.12 µM)
GI50 (RPMI-7951; Homo sapiens, read-out: GI50): 0.58 µg/mL (≈ 1.73 µM)
melting point: 171.1 to 171.9 °C
GI50 (NCI 60-cell screen; 60 cell): 167 nM
inhibition of growth of the two fungal and eight bacterial strains tested [1]: none of these compounds inhibited growth
GI50 (P388; Mus musculus, read-out: GI50): 0.315 µg/mL (≈ 0.942 µM)
IC50 (tubulin [2]): 0.82 ± 0.2 µM
GI50 (DU-145; Homo sapiens, read-out: GI50): 0.048 µg/mL (≈ 0.144 µM)
% Inhibition of Colchicine Binding ± SD (tubulin [3]): 77 ± 4%
GI50 (NCI-H460; Homo sapiens, read-out: GI50): 0.21 µg/mL (≈ 0.628 µM)

SMILES: COc1cc(C(=O)c2ccc(OC)c(OP(=O)([O-])[O-])c2OP(=O)([O-])[O-])cc(OC)c1OC.[Na+].[Na+].[Na+].[Na+] [Compound 6e, Sodium Hydroxyphenstatin Diphosphate]
GI50 (BXPC-3): 5.3 µg/mL
GI50 (KM20L2): 5.9 µg/mL
GI50 (SF-295): 0.23 µg/mL
solubility [4]: 100 mg/mL
GI50 (NCI 60-cell screen; NCI 60-cell screen, mean of panel): 167 nM
antifungal and/or antibacterial action [1]: did not
GI50 (P388): 0.0336 µg/mL
IC50 (tubulin [2]): > 40 µM
GI50 (DU-145): 0.3 µg/mL
GI50 (NCI-H460): 0.35 µg/mL

SMILES: COc1ccc(Br)c(C=O)c1O [Compound 12, 2-Hydroxy-3-methoxy-6bromo-benzaldehyde]
Minimum inhibitory Concentration (μg/disk) (Neisseria gonorrhoeae): 12.5-25 μg/disk
Minimum inhibitory Concentration (μg/disk) (Cryptococcus neoformans): 12.5-25 μg/disk
Minimum inhibitory Concentration (μg/disk) (Candida albicans): 50-100 μg/disk

SMILES: COc1ccc(Br)c(O[Si](C)(C)C(C)(C)C)c1O[Si](C)(C)C(C)(C)C [Compound 7b, 1-Bromo-2,3-bis(tert-butyldimethylsilyl-oxy)-4-methoxy-benzene]
melting point: 68.9 to 69.6 °C
inhibition of growth of the two fungal and eight bacterial strains tested [1]: none of these compounds inhibited growth

SMILES: COc1ccc(Br)c(C=O)c1OC(C)=O [Compound 11, 2-Acetoxy-3methoxy-6bromo-benzaldehyde]
Minimum inhibitory Concentration (μg/disk) (Neisseria gonorrhoeae): 25-50 μg/disk
Minimum inhibitory Concentration (μg/disk) (Cryptococcus neoformans): 6.25-12.5 μg/disk
Minimum inhibitory Concentration (μg/disk) (Candida albicans): 12.5-25 μg/disk
melting point: 121.6 to 123.4 °C
Minimum inhibitory Concentration (μg/disk) (Escherichia coli): 50-100 μg/disk

SMILES: COc1cccc(C=O)c1OC(C)=O [Compound 10, 2-Acetoxy-3methoxy-benzaldehyde]
Minimum inhibitory Concentration (μg/disk) (Cryptococcus neoformans): 25-50 μg/disk
Minimum inhibitory Concentration (μg/disk) [5]: 50-100 μg/disk
melting point: 75.4 to 76.2 °C

SMILES: COc1cc(C(O)c2ccc(OC)c(OC)c2OC)cc(OC)c1OC (stereo not shown) [Compound 14, 2′,3,3′,4,4′,5Hexamethoxydiphenylcarbinol]
inhibition of growth of the two fungal and eight bacterial strains tested [1]: none of these compounds inhibited growth

SMILES: COc1cc(C(=O)c2ccc(OC)c(OP(=O)(OCc3ccccc3)OCc3ccccc3)c2OP(=O)(OCc2ccccc2)OCc2ccccc2)cc(OC)c1OC [Compound 6d, 2′,3′-O-Di-(bisbenzylphosphoryl)-hydroxyphenstatin]
GI50 (BXPC-3): >10 µg/mL
GI50 (SF-295): >10 µg/mL
GI50 (RPMI-7951): >10 µg/mL
GI50 (P388): 2.55 µg/mL (≈ 2.98 µM)
GI50 (DU-145): >10 µg/mL
Minimum inhibitory Concentration (μg/disk) (Micrococcus luteus): 50-100 μg/disk
GI50 (NCI-H460): >10 µg/mL

IC50 (tubulin [2]): 1.1 ± 0.07 µM
% Inhibition of Colchicine Binding ± SD (tubulin [3]): 99.6 ± 0.7%
SMILES: COc1ccc(/C=C\c2cc(OC)c(OC)c(OC)c2)c(O)c1O [Compound 3a, combretastatin A-1, reference compound]

SMILES: COc1cc(C(=O)c2ccc(OC)c(OP(=O)([O-])[O-])c2OP(=O)([O-])[O-])cc(OC)c1OC.[Li+].[Li+].[Li+].[Li+] [Compound 6f, Lithium Hydroxyphenstatin Diphosphate]
solubility [4]: 25 mg/mL

SMILES: COc1cc(C(=O)c2ccc(OC)c(OP(=O)([O-])[O-])c2OP(=O)([O-])[O-])cc(OC)c1OC.[Ca+2].[Ca+2] [Compound 6h, Calcium Hydroyphenstatin Diphosphate]
solubility [4]: < 1 mg/mL

melting point: 122.3 to 124.3 °C
SMILES: COc1ccc(Br)c(O)c1O [Compound 7a, 1-Bromo-2,3dihydroxy-4methoxy-benzene]
Minimum inhibitory Concentration (μg/disk) (Neisseria gonorrhoeae): <6.25 μg/disk
Minimum inhibitory Concentration (μg/disk) (Staphylococcus aureus): 25-50 μg/disk
Minimum inhibitory Concentration (μg/disk) [5]: 25-50 μg/disk
Minimum inhibitory Concentration (μg/disk) (Escherichia coli): 50-100 μg/disk

GI50 (BXPC-3; Homo sapiens, read-out: GI50): > 10 µg/mL
GI50 (SF-295; Homo sapiens, read-out: GI50): > 10 µg/mL
GI50 (RPMI-7951; Homo sapiens, read-out: GI50): > 10 µg/mL
melting point: 70.2 to 71.7 °C
GI50 (P388; Mus musculus, read-out: GI50): > 10 µg/mL
GI50 (DU-145; Homo sapiens, read-out: GI50): > 10 µg/mL
GI50 (NCI-H460; Homo sapiens, read-out: GI50): > 10 µg/mL
SMILES: COCOc1c(OC)ccc(C(=O)c2cc(OC)c(OC)c(OC)c2)c1OCOC [Compound 6c, 2′,3′-Bis(methoxymethyloxy)-3,4,4′,5-tetramethoxybenzophenone]
inhibition of growth of the two fungal and eight bacterial strains tested [1]: none of these compounds inhibited growth

SMILES: COc1ccc(/C=C\c2cc(OC)c(OC)c(OC)c2)cc1OP(=O)(O)O [Compound 3c]
IC50 (tubulin [2]): > 40 µM

melting point: 124.6 to 125.9 °C
SMILES: COc1cc(C(=O)c2ccc(OC)c(OC)c2OC)cc(OC)c1OC [Compound 13, 2′,3,3′,4,4′,5-Hexamethoxybenzophenone]
inhibition of growth of the two fungal and eight bacterial strains tested [1]: none of these compounds inhibited growth

SMILES: COc1cc(C(=O)N2CCOCC2)cc(OC)c1OC [Compound 8a, N-(3,4,5Trimethoxybenzoyl)-morpholine]
inhibition of growth of the two fungal and eight bacterial strains tested [1]: none of these compounds inhibited growth

melting point: 79.9 to 81.8 °C
SMILES: COCOc1c(OC)ccc(C(O)c2cc(OC)c(OC)c(OC)c2)c1OCOC (stereo not shown) [Compound 15, 2′,3′-Bis(methoxymethyloxy)-3,4,4′,5tetramethoxydiphenylcarbinol]
inhibition of growth of the two fungal and eight bacterial strains tested [1]: none of these compounds inhibited growth
